Laboratory results taken from US20240400572A1, “COMPOUNDS AND METHODS FOR TREATING CANCERS THAT ARE MGMT DEFICIENT REGARDLESS OF MMR STATUS” (Yale University, priority 2021, published 2024).

Key:
Format in all cases: cell-based, human
[1] = tested on: LN229 MGMT−/MMR+ and MGMT−/MMR− cells; assay: IR alkaline comet assay; conditions: for effect on IR-induced comet tail, ICL detection (in words) / comet tailing in the absence of IR (in words): MGMT−/MMR+ cells; for effect on IR-induced comet tail, ICL detection (in words): 200 μM for 24 h; for effect on IR-induced comet tail, ICL detection (in words) / rate of ICL formation, DNA mobility after IR (in words): 10 Gy; for comet tailing in the absence of IR (in words): TMZ and KL-50 200 μM, MMC 0.1 or 50 μM; for DNA damage in unirradiated samples (in words) / rate of ICL formation, DNA mobility after IR (in words): MGMT−/MMR− cells, 200 μM, 2, 8 or 24 h; for DNA damage in unirradiated samples (in words): 0 Gy
Procedure: IR Alkaline Comet Assay. Assay was performed utilizing the CometAssay Kit (Trevigen) according to the alkaline assay protocol, with the addition of slide irradiation post-lysis. Cells were trypsinized, washed with 1×PBS, added to melted Comet LMAgarose (Trevigen), and spread on Trevigen CometSlides at a density of 1000 cells per sample in 50 μL. Lysis solution (Trevigen) with 10% DMSO was added overnight at 4° C. Slides were removed from lysis buffer and irradiated to 0 or 10 Gy using an XRAD 320 X-Ray System (Precision X-Ray) at 320 kV, 12.5 mA, and 50.0 cm SSD, with a 2 mm Al filter and 20 cm×20 cm collimator. Slides were then placed in alkaline buffer (200 mM NaOH, 1 mM EDTA) for 45 min, followed by electrophoresis in 850 mL alkaline buffer for 45 min at 4° C. Slides were washed and stained with SYBR gold (Invitrogen) per Trevigen assay protocol. Slides were imaged on a Cytation 3 imaging reader (BioTek), and comets were analyzed using CometScore 2.0 software (TriTek).
We used a well-established comet assay adapted for ICL detection to determine if ICLs were formed in MGMT− cells treated with KL-50 (4a) (FIG. Z3, A and B). In this assay, cells were sequentially exposed to genotoxins and ionizing radiation, and then analyzed by single cell alkaline gel electrophoresis. Attenuation of the IR-induced comet tail is indicative of ICL formation.

[2] = tested on: DLD1 MSH6-deficient cells; assay: Short-term cell viability assay with or without O^6BG; conditions: DLD1 (MGMT+, MSH6−), with or without 10 μM O^6BG-induced MGMT depletion
Excerpt: (§1) FIGS. Z2A-Z2H. […] (FIG. Z2A) IC50 values derived from short-term viability assays in LN229 MGMT+/−, MMR+/− cells treated with TMZ (1a) derivatives. ^aMGMT TI (therapeutic index)=IC50 (MGMT+/MMR+) divided by IC50 (MGMT−/MMR+). ^bMMR RI (resistance index)=IC50 (MGMT−/MMR−) divided by IC50 (MGMT−/MMR+). (FIG. Z2B) Short-term viability assay curves for TMZ (1a), CCNU (14), KL-85 (4b), and KL-50 (4a) in LN229 MGMT+/−, MMR+/− cells. (FIG. Z2C) Clonogenic survival curves for TMZ (1a) in LN229 MGMT+/−, MMR+/− cells, with representative images of wells containing 1000 plated cells treated with 30 μM TMZ (1a). (FIG. Z2D) Clonogenic survival curves for KL-50 (4a) in LN229 MGMT+/−, MMR+/− cells, with representative images of wells containing 1000 plated cells treated with 30 μM KL-50 (4a). (FIG. Z2E) Short-term viability assay curves for TMZ (1a) in DLD1 MSH6-deficient cells pre-treated with 0.01% DMSO control (CTR) or 10 μM O^6BG (+O^6BG) for 1 h prior to TMZ (1a) addition to deplete MGMT. (FIG. Z2F) Short-term viability assay curves for KL-50 (4a) in DLD1 MSH6-deficient cells pre-treated with 0.01% DMSO control (CTR) or 10 μM O^6BG (+O^6BG) for 1 h prior to KL-50 (4a) addition. (FIG. Z2G) Short-term viability assay curves for TMZ (1a) in HCT116 MLH1−/− cells or HCT116 cells complemented with chromosome 3 carrying wildtype MLH1 (+Chr3) pre-treated with 0.01% DMSO control or 10 μM O^6BG (+O^6BG) for 1 h prior to TMZ (1a) addition. (FIG. Z2H) Short-term viability assay curves for KL-50 (4a) in HCT116 MLH1−/− cells or HCT116 cells complemented with chromosome 3 carrying wildtype MLH1 (+Chr3) pre-treated with 0.01% DMSO control or 10 μM O^6BG (+O^6BG) for 1 h prior to KL-50 (4a) addition. For (FIG. Z2B), (FIG. Z2C), (FIG. Z2D), (FIG. Z2E), (FIG. Z2F), (FIG. Z2G), and (FIG. Z2H), points, mean; error bars, SD; n≥3 technical replicates.
(§2) Short-term Cell Viability Assay. Cells were seeded in 96-well plates at 1000 or 2000 cells/well and allowed to adhere at 23° C. for 60 min and then incubated overnight at 37° C. Cells were treated with indicated concentrations of compounds in triplicate for 4-6 days prior to fixation with 3.7% paraformaldehyde and nuclear staining with 1 μg/mL Hoechst 33342 dye. Cells were imaged on a Cytation 3 imaging reader (BioTek) and quantified using CellProfiler software.

[3] = tested on: HCT116 MLH1−/− cells and HCT116+Chr3 cells; assay: as above; conditions: for cytotoxicity in HCT116 MLH1−/− cells (in words): MLH1-deficient, with or without 10 μM O^6BG; for cytotoxicity in HCT116+Chr3 cells (in words): complemented with chromosome 3 containing MLH1, with or without 10 μM O^6BG
Excerpt: as §1, §2

SMILES	effect on IR-induced comet tail, ICL detection (in words) [1]	comet tailing in the absence of IR (in words) [1]	DNA damage in unirradiated samples (in words) [1]	rate of ICL formation, DNA mobility after IR (in words) [1]	cytotoxicity in DLD1 cells (in words) [2]	cytotoxicity in HCT116 MLH1−/− cells (in words) [3]	cytotoxicity in HCT116+Chr3 cells (in words) [3]
NC(=O)c1ncn2c(=O)n(CCF)nnc12 [KL-50, 3-(2-fluoroethyl)-4-oxo-3H,4H-imidazo[4,3-d][1,2,3,5]tetrazine-8-carboxamide]	reduced the % DNA in the tail to levels similar to those seen for 0.1 μM MMC	induced tailing	induced maximal damage at 2 h, which decreased over time	time-dependent decrease in DNA mobility	toxic to these cells, but only after O^6BG-induced MGMT depletion	selective tumor cell killing specifically in the setting of O^6BG-induced MGMT suppression	selective tumor cell killing specifically in the setting of O^6BG-induced MGMT suppression
Cn1nnc2c(C(N)=O)ncn2c1=O [TMZ, temozolomide, reference compound]	did not reduce DNA migration following IR	induced tailing	induced maximal damage at 2 h, which decreased over time	did not induce a statistically significant decrease in DNA migration within 24 h	inactive	inactive	enhanced sensitivity to TMZ (1a), which was further potentiated by MGMT depletion
